# pIC50: −log10 of the molar value. Positions of bridges follow the written chain, without caps; N, C: chain ends. Non-standard residues stand in square brackets, D forms with d. Residues, ends and D or L forms follow the SMILES beside them. *: point of attachment. X6 = O=C(O)CCCCCCCCCCCCCCCCC(=O)N[C@@H](CCC(=O)NCCCOCCOCCOCCCN*)C(=O)O; CH3O(CH2CH2O)11CH2CH2CO = COCCOCCOCCOCCOCCOCCOCCOCCOCCOCCOCCOCCC(=O)*; X4 = O=C(O)CCCCCCCCCCCCCCCCC(=O)N[C@@H](CC(=O)NCCCOCCOCCOCCCN*)C(=O)O; Trp(1-CH2COOH) = N[C@@H](Cc1cn(CC(=O)O)c2ccccc12)C(=O)O; X14 = O=C(O)CCCCCCCCCCNC(=O)CCC(=O)NCCCOCCOCCOCCCN*; Phe(3,4,5-F3) = N[C@@H](Cc1cc(F)c(F)c(F)c1)C(=O)O; d(cisHyp) = O=C(O)[C@H]1C[C@@H](O)CN1; Hyp = O=C(O)[C@@H]1C[C@@H](O)CN1; NMeF = CN[C@@H](Cc1ccccc1)C(=O)O; Myristoyl = CCCCCCCCCCCCCC(=O)*; NMeNle = CCCC[C@H](NC)C(=O)O; Dap(Me) = CNC[C@H](N)C(=O)O; Pip = O=C(O)[C@@H]1CCCCN1; dPip = O=C(O)[C@H]1CCCCN1; NMeA = CN[C@@H](C)C(=O)O; Pra = C#CC[C@H](N)C(=O)O; Aun = NCCCCCCCCCCC(=O)O; Dab = NCC[C@H](N)C(=O)O; Dap = NC[C@H](N)C(=O)O
# Target: T1, PD-L1 (Homo sapiens, UniProt Q9NZQ7)
# T1 construct: hPDL1(19-239)-TVMV-His; made in house; host or cells: HEK293T
# T1 sequence (Q9NZQ7 with tags, fused parts or gaps): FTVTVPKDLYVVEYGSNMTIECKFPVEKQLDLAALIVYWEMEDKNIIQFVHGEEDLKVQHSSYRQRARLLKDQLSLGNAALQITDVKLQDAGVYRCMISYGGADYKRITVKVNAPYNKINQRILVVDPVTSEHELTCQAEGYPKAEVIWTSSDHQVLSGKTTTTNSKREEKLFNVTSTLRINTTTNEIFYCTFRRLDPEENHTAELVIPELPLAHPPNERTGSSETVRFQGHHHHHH
# Assay: PD-1/PD-L1 Homogenous Time-Resolved Fluorescence (HTRF) binding assay (PD-1-Ig/PD-L1-His)
# Settings: inhibition of PD-1-Ig binding to PD-L1-TVMV-His; value given as number; read-out: HTRF IC50
# How it was run: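 HTRF competition in dPBS with 0.1% BSA and 0.05% Tween-20: 20 nM PD-1-Ig added after 15 min compound pre-incubation with 10 nM PD-L1-His, then another 15 min. Signal (665/620 nm) after 30 min with APC anti-His (20 nM) and Eu anti-Ig (1 nM).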
row,SMILES,pIC50
1,CCCCCCCCCCCCCCCC(=O)N[C@@H](CCn1cc(C[C@H](NC(=O)CNC(=O)[C@@H]2CSCC(=O)N[C@@H](Cc3ccc(O)cc3)C(=O)N(C)[C@@H](C)C(=O)N[C@@H](CC(=O)O)C(=O)N3CCC[C@H]3C(=O)N[C@@H](Cc3c[nH]cn3)C(=O)N[C@@H](CCCCN)C(=O)N3C[C@H](O)C[C@H]3C(=O)N[C@@H](Cc3c[nH]c4ccccc34)C(=O)N[C@@H](CCCCN)C(=O)N[C@@H](Cc3cn(CC(=O)O)c4ccccc34)C(=O)N(C)[C@@H](CCCC)C(=O)N(C)[C@@H](CCCC)C(=O)N[C@@H](CCC(=O)O)C(=O)N2)C(N)=O)nn1)C(=O)O [Example 14072],8.07
2,CCCC[C@H]1C(=O)N(C)[C@@H](CCCC)C(=O)N[C@@H](CC(C)C)C(=O)N[C@H](C(=O)NCC(=O)N[C@@H](CC(=O)NCCCOCCOCCOCCCNC(=O)CC[C@H](NC(=O)CCCCCCCCCCCCCCCCC(=O)O)C(=O)O)C(=O)O)CSCC(=O)N[C@@H](Cc2ccc(O)cc2)C(=O)N(C)[C@@H](C)C(=O)N[C@@H](CC(N)=O)C(=O)N2CCC[C@H]2C(=O)N[C@@H](Cc2c[nH]cn2)C(=O)N[C@@H](CCC(=O)O)C(=O)N2C[C@H](O)C[C@H]2C(=O)N[C@@H](Cc2c[nH]c3ccccc23)C(=O)N[C@@H](CCN)C(=O)N[C@@H](Cc2cn(CC(=O)O)c3ccccc23)C(=O)N1C [Example 11179] ({CH2CO}-Y[NMeA]NPHE[Hyp]W[Dab][Trp(1-CH2COOH)][NMeNle][NMeNle]LCGD(X6)-OH; thioether N-14),8.52
3,CCCC[C@H]1C(=O)N(C)[C@@H](CCCC)C(=O)N[C@@H](CC(C)C)C(=O)N[C@H](C(=O)NCCCOCCOCCOCCCNC(=O)CCC(=O)NCCCCCCCCCCC(=O)O)CSCC(=O)N[C@@H](Cc2ccc(O)cc2)C(=O)N(C)[C@@H](C)C(=O)N[C@@H](CC(N)=O)C(=O)N2CCC[C@H]2C(=O)N[C@@H](CN)C(=O)N[C@@H](CCC(N)=O)C(=O)N2C[C@H](O)C[C@H]2C(=O)N[C@@H](Cc2c[nH]c3ccccc23)C(=O)N[C@@H](CO)C(=O)N[C@@H](Cc2cn(CC(=O)O)c3ccccc23)C(=O)N1C [Example 11086] ({CH2CO}-Y[NMeA]NP[Dap]Q[Hyp]WS[Trp(1-CH2COOH)][NMeNle][NMeNle]LC-X14; thioether N-14),7.72

# Same assay, conditions: inhibition of PD-1-Ig binding to PD-L1-TVMV-His; value given as range class; read-out: HTRF IC50
row,SMILES,pIC50
1,CCCC[C@H]1C(=O)N(C)[C@@H](CCCC)C(=O)N[C@@H](CC(C)C)C(=O)N[C@H](C(=O)NCCCCCCCCCCC(=O)NCCCCCCCCCCC(=O)O)CSCC(=O)N[C@@H](Cc2ccc(O)cc2)C(=O)N(C)[C@@H](C)C(=O)N[C@@H](CC(N)=O)C(=O)N2CCC[C@H]2C(=O)N[C@@H](CN)C(=O)N[C@@H](CCC(N)=O)C(=O)N2C[C@H](O)C[C@H]2C(=O)N[C@@H](Cc2c[nH]c3ccccc23)C(=O)N[C@@H](CO)C(=O)N[C@@H](Cc2cn(CC(=O)O)c3ccccc23)C(=O)N1C [Example 11089] ({CH2CO}-Y[NMeA]NP[Dap]Q[Hyp]WS[Trp(1-CH2COOH)][NMeNle][NMeNle]LC[Aun][Aun]-OH; thioether N-14),7.00 to 8.00
2,C#CC[C@H](NC(=O)CNC(=O)[C@@H]1CSCC(=O)N[C@@H](Cc2ccc(O)cc2)C(=O)N(C)[C@@H](C)C(=O)N[C@@H](CC(N)=O)C(=O)N2CCC[C@H]2C(=O)N[C@@H](CN)C(=O)N[C@@H](CC(C)C)C(=O)N2C[C@H](O)C[C@H]2C(=O)N[C@@H](Cc2c[nH]c3ccccc23)C(=O)N[C@@H](CCN)C(=O)N[C@@H](Cc2cn(CC(=O)O)c3ccccc23)C(=O)N(C)[C@@H](CCCC)C(=O)N(C)[C@@H](CCCC)C(=O)N[C@@H](CCC(=O)O)C(=O)N1)C(=O)O [INT130AD] ({CH2CO}-Y[NMeA]NP[Dap]L[Hyp]W[Dab][Trp(1-CH2COOH)][NMeNle][NMeNle]ECG[Pra]-OH; thioether N-14),7.00 to 8.00
3,CCCCCCCCCCCCCCCCNC(=O)CCCCCCCCCCNC(=O)[C@@H]1CSCC(=O)N[C@@H](Cc2ccc(O)cc2)C(=O)N(C)[C@@H](C)C(=O)N[C@@H](CC(N)=O)C(=O)N2CCC[C@H]2C(=O)N[C@@H](Cc2cnc[nH]2)C(=O)N[C@@H](CC(C)C)C(=O)N2C[C@H](O)C[C@H]2C(=O)N[C@@H](Cc2c[nH]c3ccccc23)C(=O)N[C@@H](CO)C(=O)N[C@@H](Cc2c[nH]c3ccccc23)C(=O)N(C)[C@@H](CCCC)C(=O)N(C)[C@@H](CCCC)C(=O)N[C@@H](CCCNC(=N)N)C(=O)N1 [Example 11115],5.80 to 7.00
4,CCCC[C@H]1C(=O)N(C)[C@@H](CCCC)C(=O)N[C@@H](CC(=O)O)C(=O)N[C@H](C(=O)N[C@@H](Cc2cn(CCC(NC(=O)CCCCCCCCCCCCCCCCC(=O)O)C(=O)O)nn2)C(=O)O)CSCC(=O)N[C@@H](Cc2ccc(O)cc2)C(=O)N(C)[C@@H](C)C(=O)N[C@@H](CC(N)=O)C(=O)N2CCC[C@H]2C(=O)N[C@@H](CN)C(=O)N[C@@H](CC(C)C)C(=O)N2C[C@H](O)C[C@H]2C(=O)N[C@@H](Cc2c[nH]c3ccccc23)C(=O)N[C@@H](CCN)C(=O)N[C@@H](Cc2cn(CC(=O)O)c3ccccc23)C(=O)N1C (stereo partly shown) [Example 13131],7.00 to 8.00
5,"CCCC[C@H]1C(=O)N2C[C@H](O)C[C@@H]2C(=O)N[C@@H](CC(=O)O)C(=O)N[C@@H](C(C)C)C(=O)N(C)[C@@H](Cc2ccccc2)C(=O)N[C@@H](Cc2ccc(O)cc2)C(=O)N2CCCC[C@@H]2C(=O)N[C@@H](Cc2c[nH]c3ccccc23)C(=O)N[C@@H](Cc2ccc(O)cc2)C(=O)N[C@@H](CC(C)C)C(=O)N[C@H](C(=O)NCC(=O)NCC(=O)NCC(=O)N[C@@H](CCCCNC(=O)CCOCCOCCOCCOCCOCCOCCOCCOCCOCCOCCOCCOC)C(N)=O)CSCC(=O)N[C@@H](Cc2cc(F)c(F)c(F)c2)C(=O)N(C)[C@@H](Cc2ccccc2)C(=O)N1C [Example 3624] ({CH2CO}-[Phe(3,4,5-F3)][NMeF][NMeNle][d(cisHyp)]DV[NMeF]Y[dPip]WYLCGGGK(CH3O(CH2CH2O)11CH2CH2CO)-NH2; thioether N-13)",8.00 to 9.52
6,C#CC[C@H](NC(=O)CNC(=O)[C@@H]1CSCC(=O)N[C@@H](Cc2ccc(O)cc2)C(=O)N(C)[C@@H](C)C(=O)N[C@@H](CC(=O)O)C(=O)N2CCC[C@H]2C(=O)N[C@@H](Cc2c[nH]cn2)C(=O)N[C@@H](CCCCN)C(=O)N2C[C@H](O)C[C@H]2C(=O)N[C@@H](Cc2c[nH]c3ccccc23)C(=O)N[C@@H](CCCCN)C(=O)N[C@@H](Cc2cn(CC(=O)O)c3ccccc23)C(=O)N(C)[C@@H](CCCC)C(=O)N(C)[C@@H](CCCC)C(=O)N[C@@H](CCC(=O)O)C(=O)N1)C(=O)N[C@@H](CC(=O)O)C(N)=O [INT 1400E] ({CH2CO}-Y[NMeA]DPHK[Hyp]WK[Trp(1-CH2COOH)][NMeNle][NMeNle]ECG[Pra]D-NH2; thioether N-14),8.00 to 9.52
7,C#CC[C@H](NC(=O)CNC(=O)[C@@H]1CSCC(=O)N[C@@H](Cc2ccc(O)cc2)C(=O)N(C)[C@@H](C)C(=O)N[C@@H](CC(=O)O)C(=O)N2CCC[C@H]2C(=O)N[C@@H](Cc2c[nH]cn2)C(=O)N[C@@H](CCCCN)C(=O)N2C[C@H](O)C[C@H]2C(=O)N[C@@H](Cc2c[nH]c3ccccc23)C(=O)N[C@@H](CCCCN)C(=O)N[C@@H](Cc2cn(CC(=O)O)c3ccccc23)C(=O)N(C)[C@@H](CCCC)C(=O)N(C)[C@@H](CCCC)C(=O)N[C@@H](CCC(=O)O)C(=O)N1)C(=O)O [INT 1300Y] ({CH2CO}-Y[NMeA]DPHK[Hyp]WK[Trp(1-CH2COOH)][NMeNle][NMeNle]ECG[Pra]-OH; thioether N-14),8.00 to 9.52
8,CCCC[C@H]1C(=O)N(C)[C@@H](CCCC)C(=O)N[C@@H](CC(C)C)C(=O)N[C@H](C(=O)NCC(=O)N[C@@H](CCC(=O)O)C(=O)NCCCOCCOCCOCCCNC(=O)C[C@H](NC(=O)CCCCCCCCCCCCCCCCC(=O)O)C(=O)O)CSCC(=O)N[C@@H](Cc2ccc(O)cc2)C(=O)N(C)[C@@H](C)C(=O)N[C@@H](CC(N)=O)C(=O)N2CCC[C@H]2C(=O)N[C@@H](CN)C(=O)N[C@@H](CC(C)C)C(=O)N2C[C@H](O)C[C@@H]2C(=O)N[C@@H](Cc2c[nH]c3ccccc23)C(=O)N[C@@H](CCN)C(=O)N[C@@H](Cc2cn(CC(=O)O)c3ccccc23)C(=O)N1C [Example 11257] ({CH2CO}-Y[NMeA]NP[Dap]L[d(cisHyp)]W[Dab][Trp(1-CH2COOH)][NMeNle][NMeNle]LCGE-X4; thioether N-14),8.00 to 9.52
9,C#CC[C@H](NC(=O)CNC(=O)[C@@H]1CSCC(=O)N[C@@H](Cc2ccc(O)cc2)C(=O)N2CCCC[C@H]2C(=O)N[C@@H](CC(N)=O)C(=O)N2CCC[C@H]2C(=O)N[C@@H](CNC)C(=O)N[C@@H](CC(C)C)C(=O)N2C[C@H](O)C[C@H]2C(=O)N[C@@H](Cc2c[nH]c3ccccc23)C(=O)N[C@@H](CCN)C(=O)N[C@@H](Cc2cn(CC(=O)O)c3ccccc23)C(=O)N(C)[C@@H](CCCC)C(=O)N(C)[C@@H](CCCC)C(=O)N[C@@H](CC(C)C)C(=O)N1)C(=O)O [INT130AK] ({CH2CO}-Y[Pip]NP[Dap(Me)]L[Hyp]W[Dab][Trp(1-CH2COOH)][NMeNle][NMeNle]LCG[Pra]-OH; thioether N-14),8.00 to 9.52
10,CCCCCCCCCCCCCC(=O)NCCCC[C@H](NC(=O)[C@H](CC(=O)O)NC(=O)CNC(=O)[C@@H]1CSCC(=O)N[C@@H](Cc2ccc(O)cc2)C(=O)N(C)[C@@H](C)C(=O)N[C@@H](CC(=O)O)C(=O)N2CCC[C@H]2C(=O)N[C@@H](Cc2cnc[nH]2)C(=O)N[C@@H](CC(C)C)C(=O)N2C[C@H](O)C[C@H]2C(=O)N[C@@H](Cc2c[nH]c3ccccc23)C(=O)N[C@@H](CO)C(=O)N[C@@H](Cc2c[nH]c3ccccc23)C(=O)N(C)[C@@H](CCCC)C(=O)N(C)[C@@H](CCCC)C(=O)N[C@@H](CCCNC(=N)N)C(=O)N1)C(N)=O [Example 11016] ({CH2CO}-Y[NMeA]DPHL[Hyp]WSW[NMeNle][NMeNle]RCGDK(Myristoyl)-NH2; thioether N-14),7.00 to 8.00

# Reference: patent US10633419B2, “Immunomodulators” (BRISTOL-MYERS SQUIBB COMPANY, priority 2014, dated 2020)
